According to patent publication US4684622A, “Compositions and methods for producing vasodilation and antioxytocic activity” (SmithKline Beckman Corporation, priority 1986, dated 1987):
Numbered stars: 1 amine (or outer) side, 2 acyl side, 3 side chain; on linkers, the order of the positions; unused ones are H or OH. Bridge positions count the residues as written; N and C are the ends. Square brackets hold non-standard residues; d marks the D form. Peptide text beside a SMILES is read from it. X2 = O=C(CC1(S[*:2])CCCCC1)[*:1]; X1 = CC(C)(CC(=O)[*:1])S[*:2]; Mpa = O=C(O)CCS

What was measured:
oxytocin receptors = target: T1, oxytocin receptors (Rattus norvegicus, UniProt P70536); test: isolated rat uterus protocol; type: cell-based; settings: read-out: Rat OXT KB
T1 construct: Rat uterus; from tissue; host or cells: isolated rat uterus
T1 sequence (P70536 1-388): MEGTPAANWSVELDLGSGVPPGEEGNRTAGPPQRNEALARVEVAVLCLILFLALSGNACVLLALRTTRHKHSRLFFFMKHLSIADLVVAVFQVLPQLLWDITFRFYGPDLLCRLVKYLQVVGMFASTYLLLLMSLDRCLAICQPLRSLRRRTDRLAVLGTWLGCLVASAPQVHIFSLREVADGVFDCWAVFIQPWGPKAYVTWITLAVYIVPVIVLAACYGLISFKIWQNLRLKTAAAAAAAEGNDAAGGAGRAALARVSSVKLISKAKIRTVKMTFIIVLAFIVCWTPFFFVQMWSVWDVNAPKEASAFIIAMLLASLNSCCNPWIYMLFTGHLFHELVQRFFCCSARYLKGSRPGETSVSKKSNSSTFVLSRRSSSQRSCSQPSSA
Description: (§1) Antagonistic activity of the V1 -vasopressin receptors is determined in a protocol which measures the reversal of the vasopressin-induced contraction of rat thoracic aorta tissue. This is expressed as KB (nM) in the table below. Such anti-pressor activity is confirmed in a similar in vitro protocol using the plasma membranes of rat liver. V2 -vasopressin antagonism is determined as receptor binding ability measured by inhibition of 3H-LVP binding (KB as nM), by inhibition of adenylate cyclase activation by vasopressin in the medullary tissue of hog kidneys (Ki as nM) or in vivo in the hydropenic rat protocol (ED300 μg/kg). These procedures are described in the literature: F. Stassen et al., J. Pharmacology and Experimental Therapeutics, 223 50 (1982); F. Stassen et al., 1st International Conference on Diuretics, Miami, Fla., March (1984). Antagonistic activity at oxytocin receptors is determined in the isolated rat uterus protocol: W. Sawyer, et al., Endocrinology 106 81 (1979); P. Melin, et al., J. of Endocrinology 88 173 (1981).

V2-vasopressin receptors [1] = target: T2, V2-vasopressin receptors (Sus scrofa, UniProt P32307); test: inhibition of 3H-LVP binding, medullary pig kidney tissue
T2 construct: Medullary pig kidney tissue; from tissue; host or cells: pig (hog) kidney medulla
Description: as §1
(§2) ^a Medullary pig kidney tissue, […]

V1-vasopressin receptors [2] = target: T3, V1-vasopressin receptors (Rattus norvegicus, UniProt P30560); test: reversal of vasopressin-induced contraction of rat thoracic aorta tissue; type: cell-based; settings: rat aortic ring tissue
T3 construct: Rat aortic ring tissue; from tissue; host or cells: rat thoracic aorta rings
Description: as §1
^c Rat aortic ring tissue, […]

V2-vasopressin receptors [3] = target: T2, V2-vasopressin receptors; test: inhibition of adenylate cyclase activation by vasopressin, medullary pig kidney tissue; type: biochemical
Description: as §1, §2

V1-vasopressin receptors [4] = target: T3, V1-vasopressin receptors; test: in vitro protocol using plasma membranes of rat liver; type: binding; settings: rat liver membrane
Description: as §1

V2-vasopressin receptors [5] = target: T4, V2-vasopressin receptors (Rattus norvegicus, UniProt Q00788); test: hydropenic rat protocol in vivo
T4 construct: Hydropenic rat; from tissue; host or cells: whole animal (hydropenic rat)
Description: as §1

T3 sequence (P30560 whole entry): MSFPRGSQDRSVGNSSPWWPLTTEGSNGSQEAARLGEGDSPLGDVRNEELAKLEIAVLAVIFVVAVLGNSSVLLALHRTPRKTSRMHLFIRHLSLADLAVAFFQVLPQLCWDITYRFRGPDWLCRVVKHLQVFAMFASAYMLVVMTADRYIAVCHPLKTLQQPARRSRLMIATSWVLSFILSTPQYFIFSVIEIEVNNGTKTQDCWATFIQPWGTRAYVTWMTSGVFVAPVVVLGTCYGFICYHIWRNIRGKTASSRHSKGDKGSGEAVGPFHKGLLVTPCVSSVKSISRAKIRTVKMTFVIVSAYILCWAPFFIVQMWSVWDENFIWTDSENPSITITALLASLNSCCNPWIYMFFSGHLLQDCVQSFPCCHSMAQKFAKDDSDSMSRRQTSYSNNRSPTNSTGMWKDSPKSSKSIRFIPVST
T2 sequence (P32307 whole entry): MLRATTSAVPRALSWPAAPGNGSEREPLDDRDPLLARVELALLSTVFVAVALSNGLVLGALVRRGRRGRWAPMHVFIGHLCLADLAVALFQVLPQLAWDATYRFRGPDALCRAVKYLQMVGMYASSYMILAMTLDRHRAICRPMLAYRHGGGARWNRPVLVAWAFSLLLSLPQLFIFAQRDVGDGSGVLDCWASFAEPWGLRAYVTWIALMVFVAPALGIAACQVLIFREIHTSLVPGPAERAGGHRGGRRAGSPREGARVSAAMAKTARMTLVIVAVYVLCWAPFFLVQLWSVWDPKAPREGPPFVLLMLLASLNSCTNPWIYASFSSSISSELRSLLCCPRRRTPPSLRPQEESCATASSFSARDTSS
T4 sequence (Q00788 whole entry): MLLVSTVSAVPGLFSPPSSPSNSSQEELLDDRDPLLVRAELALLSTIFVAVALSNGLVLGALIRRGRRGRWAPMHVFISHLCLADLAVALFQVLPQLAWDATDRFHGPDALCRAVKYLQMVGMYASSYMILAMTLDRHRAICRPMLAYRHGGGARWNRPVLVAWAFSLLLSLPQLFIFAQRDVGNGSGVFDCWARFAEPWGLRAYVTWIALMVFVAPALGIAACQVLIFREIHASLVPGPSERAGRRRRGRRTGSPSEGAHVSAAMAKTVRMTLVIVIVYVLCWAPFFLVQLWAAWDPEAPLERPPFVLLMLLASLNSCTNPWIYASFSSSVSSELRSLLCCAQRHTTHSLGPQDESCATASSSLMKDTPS

| Kb (oxytocin receptors) | Kb (V2-vasopressin receptors [1]) | Kb (V1-vasopressin receptors [2]) | Rat V2 ED300 (V2-vasopressin receptors [5]) | Kb (V1-vasopressin receptors [2]; estimated, compound noncompetitive) | Structure (SMILES) | Ki (V2-vasopressin receptors [3]) | Kb (V1-vasopressin receptors [4]) | Pig V2 Ki (V2-vasopressin receptors [3]) |
| --- | --- | --- | --- | --- | --- | --- | --- | --- |
| 11.4 nM | 1600 nM |  |  |  | CCOc1ccc(C[C@H]2NC(=O)CCSSC[C@@H](C(=O)N[C@@H](CCCNC(=N)N)C(N)=O)NC(=O)[C@H](CC(N)=O)NC(=O)[C@H]([C@@H](C)O)NC(=O)[C@H]([C@@H](C)CC)NC2=O)cc1 [D] ([Mpa][dY](Et)ITNCR-NH2; disulfide 1-6) |  |  |  |
| 18.9 nM | 3300 nM | 1.48 nM | > 5.977 mg/kg |  | COc1ccc(C[C@@H]2NC(=O)CC(C)(C)SSC[C@@H](C(=O)N[C@@H](CCCNC(=N)N)C(=O)NCC(N)=O)NC(=O)[C@H](CC(N)=O)NC(=O)[C@H](CCC(N)=O)NC(=O)[C@H](Cc3ccccc3)NC2=O)cc1 [B] (Y(Me)FQNCRG-NH2; linker N-5 via X1) |  | 37 nM |  |
| 17.7 nM | 4100 nM |  |  |  | CCOc1ccc(C[C@H]2NC(=O)CCSSC[C@@H](C(=O)N[C@@H](CCCNC(=N)N)C(=O)NCC(N)=O)NC(=O)[C@H](CC(N)=O)NC(=O)[C@H]([C@@H](C)O)NC(=O)[C@H]([C@@H](C)CC)NC2=O)cc1 [E] ([Mpa][dY](Et)ITNCRG-NH2; disulfide 1-6) |  |  |  |
| 1.88 nM | 350 nM |  |  | 0.0072 nM | CCOc1ccc(C[C@H]2NC(=O)CC(C)(C)SSC[C@@H](C(=O)N[C@@H](CCCNC(=N)N)C(N)=O)NC(=O)[C@H](CC(N)=O)NC(=O)[C@H](CCC(N)=O)NC(=O)[C@H](Cc3ccccc3)NC2=O)cc1 [C] ([dY](Et)FQNCR-NH2; linker N-5 via X1) |  |  |  |

More lines, now with the values behind:

| Structure (SMILES) | Kb (oxytocin receptors) | Kb (V2-vasopressin receptors [1]) | Kb (V1-vasopressin receptors [2]) | Rat V2 ED300 (V2-vasopressin receptors [5]) | Kb (V1-vasopressin receptors [2]; estimated, compound noncompetitive) | Ki (V2-vasopressin receptors [3]) | Kb (V1-vasopressin receptors [4]) | Pig V2 Ki (V2-vasopressin receptors [3]) |
| --- | --- | --- | --- | --- | --- | --- | --- | --- |
| COc1ccc(C[C@@H]2NC(=O)CC3(CCCCC3)SSC[C@@H](C(=O)N3CCC[C@H]3C(=O)N[C@@H](CCCN=C(N)N)C(=O)NCC(N)=O)NC(=O)[C@H](CC(N)=O)NC(=O)[C@H](CCC(N)=O)NC(=O)[C@H](Cc3ccccc3)NC2=O)cc1 [G] (Y(Me)FQNCPRG-NH2; linker N-5 via X2) |  | 369 nM | 0.026 nM |  |  | 210 nM | 0.48 nM |  |
| COc1ccc(C[C@@H]2NC(=O)CC(C)(C)SSC[C@@H](C(=O)N[C@@H](CCCNC(=N)N)C(N)=O)NC(=O)[C@H](CC(N)=O)NC(=O)[C@H](CCC(N)=O)NC(=O)[C@H](Cc3ccccc3)NC2=O)cc1 [A] (Y(Me)FQNCR-NH2; linker N-5 via X1) | 32.6 nM | 3000 nM | 5.69 nM | > 5.959 mg/kg |  |  | 38 nM |  |
| COc1ccc(C[C@@H]2NC(=O)CC(C)(C)SSC[C@@H](C(=O)N3CCC[C@H]3C(=O)N[C@@H](CCCNC(=N)N)C(=O)NCC(N)=O)NC(=O)[C@H](CC(N)=O)NC(=O)[C@H](CCC(N)=O)NC(=O)[C@H](Cc3ccccc3)NC2=O)cc1 [F] (Y(Me)FQNCPRG-NH2; linker N-5 via X1) |  | 70 nM |  |  |  |  | 2.9 nM | agonist |
